Data on eight compounds can be found in DBAASP.

Among the test systems are Escherichia coli 078; Escherichia coli K88; Escherichia coli K99; Escherichia coli UB1005.
Holding throughout (test): ≥ marks a high value that may be exact or a test limit, other limits are often not marked, values filed in µg/mL are converted to µM
Assay [1] deals with Erwinia amylovora PMV 6076.
The subject of assay [2] is Pseudomonas syringae pv. syringae EPS 94.
The test system of assay [3] is Xanthomonas campestris pv. Vesicatoria 2133-2.
Assay [4] deals with Clavibacter michiganensis subsp. michiganensis DSM 46294.
In assay [5] the test system is Pectobacterium carotovorum subsp. carotovorum DSM 30168.
Assay [6] deals with Pseudomonas corrugata DSM 7228.
The test system of assay [7] is Pseudomonas syringae pv. syringae DSM 10604.
For assay [8], the system named is Pseudomonas syringae pv. tomato DC3000.
Assay [9] relates to Xanthomonas vesicatoria DSM 50861.
Assay [10] deals with Candida albicans CGMCC 2.2086.
Assay [11] concerns Candida parapsilosis CGMCC 2.3989.
The subject of assay [12] is Candida tropicalis CGMCC 2.1975.
Assay [13] concerns Pseudomonas aeruginosa ATCC 27853.
In assay [14] the test system is Salmonella enterica subsp. enterica serovar Pullorum ATCC 7913.
In assay [15] the test system is Salmonella enterica subsp. enterica serovar Typhimurium ATCC 14028.
Assay [16] concerns Salmonella enterica subsp. enterica serovar Typhimurium C77-31.
The subject of assay [17] is Staphylococcus aureus ATCC 25923.
Assay [18] relates to Staphylococcus aureus ATCC 43300.
Assay [19] relates to Staphylococcus epidermidis ATCC 12228.
In assay [20] the test system is Escherichia coli ATCC 25922.
Assay [21] concerns Pseudomonas aeruginosa PAO1.
The subject of assay [22] is Salmonella enterica serovar Typhimurium.
Assay [23] relates to Bacillus subtilis ATCC 6633.
Assay [24] relates to Klebsiella pneumoniae ATCC 10031.
The subject of assay [25] is Micrococcus luteus ATCC 10240.
Assay [26] has as its system Shigella dysenteriae ATCC 9752.
In assay [27] the test system is Staphylococcus aureus ATCC 6538P.
The subject of assay [28] is Escherichia coli K12 MG1655.

Values after ≈ are worked out from the molar mass of the structure shown.

Consider `CC[C@H](C)[C@H](NC(=O)[C@H](CCCCN)NC(=O)[C@H](CCCCN)NC(=O)[C@H](Cc1ccccc1)NC(=O)[C@H](CC(C)C)NC(=O)[C@H](CCCCN)NC(=O)[C@@H](N)CCCCN)C(=O)N[C@@H](CC(C)C)C(=O)N[C@@H](CCCCN)C(=O)N[C@@H](Cc1ccc(O)cc1)C(=O)N[C@@H](CC(C)C)C(=O)N[C@@H](CCCCN)C(=O)N[C@@H](Cc1ccccc1)C(=O)N[C@@H](CC(C)C)C(=O)N[C@@H](Cc1cnc[nH]1)C(=O)N[C@@H](CO)C(=O)N[C@@H](C)C(=O)N[C@@H](CCCCN)C(=O)N[C@@H](CCCCN)C(=O)N[C@@H](CC(=O)O)C(=O)N[C@@H](CCC(=O)O)C(=O)N[C@@H](CC(C)C)C(=O)O` [KKLFKKILKYLKFLHSAKKDEL], for which the figures for the minimum inhibitory concentration (MIC) in [1], in assay [2] and in assay [3] were 3.54 µM (≈ 9.61 µg/mL), 1.77 µM (≈ 4.81 µg/mL) and 1.77 µM (≈ 4.81 µg/mL), respectively.
Regarding `CC(C)C[C@H](NC(=O)[C@H](CCC(=O)O)NC(=O)[C@H](CC(=O)O)NC(=O)[C@H](CCCCN)NC(=O)[C@H](CC(C)C)NC(=O)[C@H](Cc1cnc[nH]1)NC(=O)[C@H](CCC(=O)O)NC(=O)[C@H](Cc1c[nH]c2ccccc12)NC(=O)[C@H](CC(=O)O)NC(=O)[C@H](CCCCN)NC(=O)[C@H](CC(C)C)NC(=O)[C@H](Cc1cnc[nH]1)NC(=O)[C@H](CCC(=O)O)NC(=O)[C@H](Cc1c[nH]c2ccccc12)NC(=O)[C@H](CC(=O)O)NC(=O)[C@H](CCCCN)NC(=O)[C@H](CC(C)C)NC(=O)[C@H](Cc1cnc[nH]1)NC(=O)[C@H](CCC(=O)O)NC(=O)[C@H](Cc1c[nH]c2ccccc12)NC(=O)[C@H](CC(=O)O)NC(=O)[C@@H](N)CCCCN)C(=O)O` [KDWEHLKDWEHLKDWEHLKDEL], the minimum inhibitory concentration (MIC) in [1], in assay [2] and in assay [3] was no less than 100 µM throughout.
For the compound `CC[C@H](C)[C@H](NC(=O)[C@H](C)NC(=O)[C@H](CC(C)C)NC(=O)[C@H](CCCN=C(N)N)NC(=O)[C@H](CC(C)C)NC(=O)[C@@H](NC(=O)[C@H](CCCN=C(N)N)NC(=O)[C@H](CC(C)C)NC(=O)[C@@H](NC(=O)[C@H](CC(C)C)NC(=O)[C@H](CCCN=C(N)N)NC(=O)[C@H](CCCN=C(N)N)NC(=O)[C@@H](N)CCCCN)[C@@H](C)CC)[C@@H](C)CC)C(=O)N[C@@H](CCCN=C(N)N)C(=O)N[C@H](C(=O)N[C@@H](CC(C)C)C(=O)N[C@H](C(=O)N[C@@H](CCCCN)C(=O)N[C@@H](CCCCN)C(=O)N[C@@H](CCCN=C(N)N)C(N)=O)C(C)C)[C@@H](C)CC` [KRRLILRILRLAIRILVKKR], the MIC stood at 0.989 µM (≈ 2.5 µg/mL) in assay [4]; 3.96 µM (≈ 10 µg/mL) in assay [5]; 3.96 µM (≈ 10 µg/mL) in assay [6]; 3.96 µM (≈ 10 µg/mL) in assay [7]; 3.96 µM (≈ 10 µg/mL) in assay [8]; 0.989 µM (≈ 2.5 µg/mL) in assay [9].
As to `CC[C@H](C)[C@H](NC(=O)[C@H](CCCN=C(N)N)NC(=O)[C@H](C)NC(=O)[C@H](C)N)C(=O)N[C@H](C(=O)N[C@@H](CC(C)C)C(=O)N[C@@H](CCCN=C(N)N)C(=O)N[C@@H](Cc1ccc(O)cc1)C(=O)N[C@@H](CCCN=C(N)N)C(=O)N[C@@H](Cc1ccccc1)C(=O)N[C@@H](CCCN=C(N)N)C(N)=O)[C@@H](C)CC` [AARIILRYRFR], the MIC was no less than 128 µM in assay [10]; no less than 64 µM in assay [11]; 16 µM (≈ 22.9 µg/mL) in [12]; 4 µM (≈ 5.74 µg/mL) against Escherichia coli 078; 4 µM (≈ 5.74 µg/mL) in the assay with Escherichia coli K88; 4 µM (≈ 5.74 µg/mL) in the assay with Escherichia coli K99. The MIC was 4 µM (≈ 5.74 µg/mL) in the assay with Escherichia coli UB1005; 16 µM (≈ 22.9 µg/mL) in assay [13]; 4 µM (≈ 5.74 µg/mL) in assay [14]; 8 µM (≈ 11.5 µg/mL) in assay [15]; 4 µM (≈ 5.74 µg/mL) in assay [16]; 8 µM (≈ 11.5 µg/mL) in assay [17]. The minimum inhibitory concentration (MIC) in [18] came to 4 µM (≈ 5.74 µg/mL); in assay [19], 2 µM (≈ 2.87 µg/mL).
With `CC[C@H](C)[C@H](NC(=O)[C@@H](NC(=O)[C@H](CS)NC(=O)[C@@H](NC(=O)[C@H](CCCN=C(N)N)NC(=O)[C@H](CS)NC(=O)[C@H](CCCN=C(N)N)NC(=O)[C@H](CC(C)C)NC(=O)[C@H](CCC(N)=O)NC(=O)[C@@H](N)C(C)C)C(C)C)C(C)C)C(=O)N[C@@H](CCCN=C(N)N)C(=O)N[C@@H](CCCCN)C(=O)O` [VQLRCRVCVIRK], the MIC stood at 21.7 µM (≈ 32 µg/mL) in [20], 43.5 µM (≈ 64 µg/mL) in assay [21], 21.7 µM (≈ 32 µg/mL) in [22] and 43.5 µM (≈ 64 µg/mL) in [17].
For `CC(C)C[C@H](NC(=O)[C@H](Cc1c[nH]c2ccccc12)NC(=O)CNC(=O)[C@H](CC(C)C)NC(=O)[C@@H](N)Cc1ccccc1)C(=O)N[C@@H](Cc1ccccc1)C(=O)N[C@@H](CCCCN)C(=O)N[C@@H](Cc1c[nH]c2ccccc12)C(=O)N[C@@H](C)C(=O)N[C@@H](Cc1c[nH]c2ccccc12)C(=O)N[C@@H](CCCCN)C(N)=O` [FLGWLFKWAWK], the MIC was 4.25 µM (≈ 6.3 µg/mL) in assay [23]; 16.9 µM (≈ 25 µg/mL) in assay [20]; 8.44 µM (≈ 12.5 µg/mL) in assay [24]; 2.09 µM (≈ 3.1 µg/mL) in assay [25]; greater than 135 µM in assay [13]; 67.5 µM (≈ 99.9 µg/mL) in assay [15]. For the same compound, the values for the minimum inhibitory concentration (MIC) in assay [26], in [27] and in assay [19] were 8.44 µM (≈ 12.5 µg/mL), 4.25 µM (≈ 6.3 µg/mL) and 4.25 µM (≈ 6.3 µg/mL), respectively.
Consider `CC[C@H](C)[C@H](NC(=O)[C@H](CCCCN)NC(=O)[C@H](CCCCN)NC(=O)[C@H](Cc1ccccc1)NC(=O)[C@H](CC(C)C)NC(=O)[C@H](CCCCN)NC(=O)[C@@H](N)CCCCN)C(=O)N[C@@H](CC(C)C)C(=O)N[C@@H](CCCCN)C(=O)N[C@@H](Cc1ccc(O)cc1)C(=O)N[C@@H](CC(C)C)C(=O)N[C@@H](C)C(=O)NCC(=O)N1CCC[C@H]1C(=O)N[C@@H](C)C(=O)N[C@@H](CCCCN)C(=O)N[C@@H](Cc1ccccc1)C(=O)N[C@@H](CC(C)C)C(=O)N[C@@H](Cc1cnc[nH]1)C(=O)N[C@@H](CO)C(=O)N[C@@H](C)C(=O)N[C@@H](CCCCN)C(=O)O` [KKLFKKILKYLAGPAKFLHSAK], for which the MIC was 3.54 µM (≈ 8.95 µg/mL) in [1], 1.77 µM (≈ 4.47 µg/mL) in assay [2] and 3.54 µM (≈ 8.95 µg/mL) in [3].
Consider `CC(C)C[C@H](NC(=O)[C@H](CCCCN)NC(=O)[C@@H](N)CCCN=C(N)N)C(=O)N[C@@H](C)C(=O)N[C@@H](Cc1ccccc1)C(=O)N[C@@H](CCCCN)C(=O)N1CCC[C@H]1C(=O)N[C@@H](CC(C)C)C(=O)N[C@@H](CCCCN)C(=O)N[C@@H](CCCCN)C(=O)N[C@@H](Cc1ccccc1)C(=O)N[C@@H](Cc1ccccc1)C(=O)N[C@@H](CO)C(=O)N[C@@H](Cc1c[nH]c2ccccc12)C(=O)N[C@@H](CCCCN)C(=O)N[C@@H](CO)C(=O)O` [RKLAFKPLKKFFSWKS], for which the MIC in assay [28] was 7.95 µM (≈ 16 µg/mL).
